Results as given in PubChem BioAssay AID2060603 (Molecular Pharmacology Branch, DTP, NCI, 2025).
Several values for one entry are separate records, joined by “and”; a condition that tells them apart may be missing. Equal entries are not always repeated.

Tested on: 422866-222-R5-J1-PDC spheroid viability
Test: Anticancer human tumor 422866-222-R5-J1-PDC patient-derived pancreatic adenocarcinoma cell line growth inhibition [CLK]
Conditions: spheroids with HUVEC and MSC; for viability, T/C: stronger effect = lower value
Excerpt: A high-throughput screen of multi-cell type tumor spheroids was designed to identify active combinations of […] and targeted small molecules. Complex spheroids include a stromal component modeled by human endothelial cells (HUVEC) and fibroblasts modeled by human mesenchymal stem cells (MSCs). The concentration ranges selected for each drug and investigational agent were based upon clinically achievable concentrations if the clinical Cmax of the agent was known.
Compounds. The drugs and investigational agents: cirtuvivint (SM08502; NSC835563), CC-671 (NSC850746), vemurafenib (NSC761431), tapotoclax (NSC804041), sotorasib (NSC818433), adagrasib (NSC831453), MRTX-1133 (NSC836407), BAY2416964 (NSC825713), copanlisib (NSC816437), inavolisib (NSC800729), abemaciclib (NSC768073), osimertinib (NSC779217), entinostat (NSC756642), eltanexor (KPT-8602, NSC794443), venetoclax (NSC766270), ceralasertib (NSC777638), bortezomib (NSC756655), olaparib (NSC753686), talazoparib (NSC767125), alisertib (NSC759677), peposertib (NSC802822), gemcitabine (NSC613327), 5-fluorouracil (NSC19893), SN-38 (NSC673596), oxaliplatin (NSC266046), paclitaxel (NSC125973), and doxorubicin (NSC123127), were obtained from the National Cancer Institute (NCI) Developmental Therapeutics Program Chemical Repository. The FDA-approved anticancer drug set is available from the Developmental Therapeutics Program at https://dtp.cancer.gov/organization/dscb/obtaining/available plates.htm. […] The stock solutions were prepared in dimethyl sulfoxide (DMSO, Sigma-Aldrich, St. Louis, MO, cat. D2650), except for the platinum complexes which were prepared in saline (Quality Biological, Gaithersburg, MD, cat. 114-055-101), at 800-fold the tested concentration and stored at -70 degrees C prior to their use. All drugs and investigational agents were tested over a range starting from a high concentration at or near the clinical Cmax and decreasing in half-log increments. If the clinical Cmax for an agent had not been determined, the highest concentration tested was 10 microM.
Cell Culture. All cells were maintained in an incubator at 37 degrees C and 5% CO2 with 95% humidity. The PDC lines were cultured according to standard operating procedures established by the NCI PDMR. Briefly, all PDCs were thawed and cultured in Matrigel-coated flasks prepared with a working solution of 1X Ham's F-12 nutrient mix, without supplementation (Invitrogen, Waltham, MA, cat. 11765054), 100 U/mL penicillin-streptomycin (Invitrogen, cat. 15140122), and 2.5% Matrigel (Corning Inc., Corning, NY, cat. 354248) for the first three passages. The 947758-054-R-J2-PDC line was cultured in 6B/Colon 1A media, which includes advanced DMEM/F-12 (Thermo Fisher Scientific, cat. 12634028), 10 mM HEPES (Thermo Fisher Scientific, cat. 15630080), 1X GlutaMAX supplement (Thermo Fisher Scientific, cat. 35050061), 0.1 mg/mL primocin (InvivoGen, cat. ant-pm-2), 10% defined fetal bovine serum, heat inactivated (HyClone Laboratories Inc., cat. SH30070.03HI), 1.25 mM N-Acetyl-L-cysteine (Sigma-Aldrich, cat. A9165), 10 mM nicotinamide (Sigma-Aldrich, cat. N0636), 1X B-27 supplement (Thermo Fisher Scientific, cat. 17504044), 1X N-2 supplement (Thermo Fisher Scientific, cat. 17502048), and 10 microM Y-27632 dihydrochloride (Tocris Bioscience, cat. 1254). The 876862-298-R-J1-PDC was cultured in 6E media, which includes all 6B/Colon 1A media components plus 50% L-WRN conditioned media (ATCC, cat. CRL-3276), 50 ng/mL recombinant human EGF recombinant protein (hEGF; Thermo Fisher Scientific, cat. PHG0311), 10 ng/mL recombinant human fibroblast growth factor 10 (hGFG-10; PeproTech, cat. 100-26), 1 ng/mL recombinant human fibroblast growth factor 2 (hFGF-2; PeproTech, cat. 100-18B), and 1 µM prostaglandin E2 (PGE2; Tocris, cat. 2296). The 227483-062-R1-J1-PDC line was cultured in Panc media, containing all 6E components except hFGF-2, with the addition of 500 nM SB-431542 (Selleckchem, cat. S1067) and 10 nM gastrin (Tocris, cat. 3006). […]
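Further: spheroids exposed to agents for seven days before readout.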

Nc1ccccc1NC(=O)c1ccc(CNC(=O)OCc2cccnc2)cc1 + CNC(=O)c1ccc(Nc2nc(OC3CCCC3)c3c(-c4ccc5nc(C)oc5c4)c[nH]c3n2)c(OC)c1
IC50 (curve of first compound, second compound 0.0316 µM): > 10000 nM
IC50 (curve of first compound, second compound 0.1 µM): > 10000 nM
IC50 (curve of first compound, second compound 0.316 µM): > 10000 nM
IC50 (curve of first compound, second compound 1 µM): 4640 nM
IC50 (curve of first compound, second compound 3.16 µM): > 10000 nM
IC50 (curve of first compound, second compound 10 µM): > 10000 nM
viability, T/C (second compound 0.0316 µM, first compound 0.0316 µM): 115%
viability, T/C (second compound 0.0316 µM, first compound 0.1 µM): 121%
viability, T/C (second compound 0.0316 µM, first compound 0.316 µM): 157%
viability, T/C (second compound 0.0316 µM, first compound 1 µM): 90%
viability, T/C (second compound 0.0316 µM, first compound 3.16 µM): 68.7%
viability, T/C (second compound 0.0316 µM, first compound 10 µM): 74.7%
viability, T/C (second compound 0.1 µM, first compound 0.0316 µM): 106%
viability, T/C (second compound 0.1 µM, first compound 0.1 µM): 116%
viability, T/C (second compound 0.1 µM, first compound 0.316 µM): 114%
viability, T/C (second compound 0.1 µM, first compound 1 µM): 99.8%
viability, T/C (second compound 0.1 µM, first compound 3.16 µM): 77.9%
viability, T/C (second compound 0.1 µM, first compound 10 µM): 79.2%
viability, T/C (second compound 0.316 µM, first compound 0.0316 µM): 82.5%
viability, T/C (second compound 0.316 µM, first compound 0.1 µM): 76.5%
viability, T/C (second compound 0.316 µM, first compound 0.316 µM): 77%
viability, T/C (second compound 0.316 µM, first compound 1 µM): 80.8%
viability, T/C (second compound 0.316 µM, first compound 3.16 µM): 64.5%
viability, T/C (second compound 0.316 µM, first compound 10 µM): 50.9%
viability, T/C (second compound 1 µM, first compound 0.0316 µM): 75.1%
viability, T/C (second compound 1 µM, first compound 0.1 µM): 67.6%
viability, T/C (second compound 1 µM, first compound 0.316 µM): 69.1%
viability, T/C (second compound 1 µM, first compound 1 µM): 60.8%
viability, T/C (second compound 1 µM, first compound 3.16 µM): 58.5%
viability, T/C (second compound 1 µM, first compound 10 µM): 39.1%
viability, T/C (second compound 3.16 µM, first compound 0.0316 µM): 65.7%
viability, T/C (second compound 3.16 µM, first compound 0.1 µM): 60.2%
viability, T/C (second compound 3.16 µM, first compound 0.316 µM): 77.6%
viability, T/C (second compound 3.16 µM, first compound 1 µM): 76.2%
viability, T/C (second compound 3.16 µM, first compound 3.16 µM): 60.6%
viability, T/C (second compound 3.16 µM, first compound 10 µM): 49.6%
viability, T/C (second compound 10 µM, first compound 0.0316 µM): 67.2%
viability, T/C (second compound 10 µM, first compound 0.1 µM): 60.6%
viability, T/C (second compound 10 µM, first compound 0.316 µM): 71.9%
viability, T/C (second compound 10 µM, first compound 1 µM): 61.2%
viability, T/C (second compound 10 µM, first compound 3.16 µM): 67.3%
viability, T/C (second compound 10 µM, first compound 10 µM): 48.1%

Cn1ncnc1[C@H]1c2n[nH]c(=O)c3cc(F)cc(c23)N[C@@H]1c1ccc(F)cc1
viability, T/C (compound 0.000316 µM): 86.9% and 103%
viability, T/C (compound 0.001 µM): 110% and 95.5%
viability, T/C (compound 0.00316 µM): 97% and 99.8%
viability, T/C (compound 0.01 µM): 101% and 87.8%
viability, T/C (compound 0.0316 µM): 91.4%
viability, T/C (compound 0.1 µM): 85% and 87.1%
IC50 (curve of compound): > 100 nM

C=CC(=O)Nc1cc(Nc2nccc(-c3cn(C)c4ccccc34)n2)c(OC)cc1N(C)CCN(C)C
viability, T/C (compound 0.000949 µM): 117% and 87.2%
viability, T/C (compound 0.003 µM): 106% and 102%
viability, T/C (compound 0.00949 µM): 83% and 85%
viability, T/C (compound 0.03 µM): 93.5% and 83.8%
viability, T/C (compound 0.0949 µM): 82.8% and 69%
viability, T/C (compound 0.3 µM): 74.9% and 72.9%
IC50 (curve of compound): > 300 nM

C=C(F)C(=O)N1CCN(c2nc(OCC3CCCN3C)nc3c2CCN(c2cccc4cccc(Cl)c24)C3)CC1CC#N (stereo not given)
viability, T/C (compound 0.0316 µM): 31.6% and 42%
viability, T/C (compound 0.1 µM): 23.6% and 24.5%
viability, T/C (compound 0.316 µM): 19.6% and 21%
viability, T/C (compound 1 µM): 26.1% and 22.8%
viability, T/C (compound 3.16 µM): 11.2% and 15.2%
viability, T/C (compound 10 µM): 0.14%
IC50 (curve of compound): < 31.6 nM

CC(C)CC(NC(=O)C(Cc1ccccc1)NC(=O)c1cnccn1)B(O)O (stereo not given)
viability, T/C (compound 0.000949 µM): 95.5% and 91.7%
viability, T/C (compound 0.003 µM): 64.7% and 73.9%
viability, T/C (compound 0.00949 µM): 16.9% and 26.7%
viability, T/C (compound 0.03 µM): 2.66% and 2.25%
viability, T/C (compound 0.0949 µM): 0.86% and 0.8%
viability, T/C (compound 0.3 µM): 2.88% and 1.33%
IC50 (curve of compound): 4.28 nM and 5.36 nM
